Test results reported in ChEMBL document CHEMBL4308842, “Allosteric Modulators of HSP90 and HSP70: Dynamics Meets Function through Structure-Based Drug Design” (J Med Chem, 2018).
Each block holds one compound with its values, some of them ahead of it.

Key:
SK-BR-3 = assay: Antiproliferative activity against human SKBR3 cells; format: functional, cell-based
MCF7 = assay: Antiproliferative activity against human MCF7 cells; format: functional, cell-based
Jurkat [1] = assay: Potency index, ratio of etoposide IC50 to compound IC50 for antiproliferative activity against human Jurkat T cells; format: functional
Jurkat [2] = assay: Antiproliferative activity against human Jurkat T cells after 48 hrs; format: functional, cell-based
Jurkat [3] = assay: Potency index, ratio of 17-AAG IC50 to compound IC50 for antiproliferative activity against human Jurkat T cells; format: functional
Jurkat [4] = assay: Potency index, ratio of novobiocin IC50 to compound IC50 for antiproliferative activity against human Jurkat T cells; format: functional
Heat shock protein HSP90 = Heat shock protein HSP90 (Homo sapiens, UniProt P07900+P08238); assay: Binding affinity to HSP90 (unknown origin) by SPR analysis; format: protein assay
[5] = target: Chaperone protein dnaK (Escherichia coli) (UniProt C3TRK2); assay: Inhibition of Escherichia coli DNAK ATPase activity after 3 hrs relative to control; details: concentration not given here
Sequence of Chaperone protein dnaK (Escherichia coli) (C3TRK2 1-638): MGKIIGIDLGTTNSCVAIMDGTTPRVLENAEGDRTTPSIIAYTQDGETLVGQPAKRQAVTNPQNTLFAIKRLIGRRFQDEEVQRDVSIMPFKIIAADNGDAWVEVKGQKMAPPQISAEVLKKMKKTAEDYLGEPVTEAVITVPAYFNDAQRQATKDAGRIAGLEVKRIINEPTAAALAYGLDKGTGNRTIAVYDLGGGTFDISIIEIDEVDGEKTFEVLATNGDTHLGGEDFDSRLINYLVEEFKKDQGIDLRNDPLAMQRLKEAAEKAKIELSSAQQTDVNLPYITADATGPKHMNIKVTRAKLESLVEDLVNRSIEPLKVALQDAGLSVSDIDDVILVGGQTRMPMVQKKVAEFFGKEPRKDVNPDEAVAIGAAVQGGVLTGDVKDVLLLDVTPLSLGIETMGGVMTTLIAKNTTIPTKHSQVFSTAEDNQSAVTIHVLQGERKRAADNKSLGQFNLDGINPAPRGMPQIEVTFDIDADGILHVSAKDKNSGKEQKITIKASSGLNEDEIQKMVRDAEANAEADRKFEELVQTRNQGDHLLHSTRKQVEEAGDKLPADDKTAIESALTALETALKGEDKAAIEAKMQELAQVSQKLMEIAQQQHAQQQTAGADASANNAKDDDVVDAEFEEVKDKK

Structure (SMILES): O=C(O[C@@H]1Cc2c(O)cc(O)cc2O[C@@H]1c1cc(O)c(O)c(O)c1)c1cc(O)c(O)c(O)c1 [EPIGALOCATECHIN GALLATE]
IC50 (SK-BR-3): 4000 nM | IC50 (MCF7): 4000 nM

Structure (SMILES): COc1cccc(-c2cc(C(=O)Nc3cc4cc(OC)c(OC(C)=O)c(C)c4oc3=O)ccc2OC)c1
Ratio IC50 (Jurkat [1]): 3 | IC50 (Jurkat [2]): 416 nM | Ratio IC50 (Jurkat [3]): 10 | Ratio IC50 (Jurkat [4]): 600 | Kd (Heat shock protein HSP90): 1000 to 2000 nM

inhibition [5]: 75%
Structure (SMILES): O=c1c(O)c(-c2cc(O)c(O)c(O)c2)oc2cc(O)cc(O)c12

Structure (SMILES): CO[C@@H]1[C@@H](OC(=O)c2ccc(C)[nH]2)[C@@H](O)[C@H](Oc2ccc3c(O)c(NC(=O)c4c[nH]c(C(=O)Nc5c(O)c6ccc(O[C@@H]7OC(C)(C)[C@H](OC)[C@@H](OC(=O)c8ccc(C)[nH]8)[C@H]7O)c(C)c6oc5=O)c4C)c(=O)oc3c2C)OC1(C)C
IC50 (SK-BR-3): 2000 nM | IC50 (MCF7): 2000 nM
